Data taken from patent publication US20180133148A1, “Degradable Microparticles for Protein and Small Molecule Delivery” (Georgia Tech Research Corporation, priority 2016, published 2018).

What was measured:
[1] = FTY720 loading and release from degradable heparin-based MPs (plate reader); format: physicochemical
Description: FTY720 was loaded onto degradable heparin-based MPs. The amount of FTY720 that was loaded onto the MPs was then assayed via plate reader. In three separate groups, additional amounts of FTY720, i.e. 5 μg, 10 μg and 20 μg, were then added. […] For each of the three separate groups, the extent of FTY720 release was assayed via plate reader each day over 7 days. […] The black line refers to the batch with 20 μg added. The dark blue line refers to the batch with 10 μg added. The light blue line refers to the batch with 5 μg added.

plasmin = assay: Plasmin inhibition assay (TSG-6 anti-plasmin activity); format: biochemical
Description: To assess TSG-6 bioactivity after release from MPs, the plasmin inhibition assay protocol was followed with day 1 TSG-6 release supernatant (11 ng/mL) and compared to a soluble TSG-6 control at the same concentration (11 ng/mL); n=3-5.
Without wishing to be bound by theory, it may be that the sulfate groups removed, the N sulfate group for Hep^−N and the N and […] for Hep−, are necessary for complete heparin binding to TSG-6 and the subsequent enhancement of TSG-6 bioactivity.

[2] = tested on: articular cartilage of the medial tibial plateau; assay: EPIC-μCT of tibial articular cartilage, medial meniscal transection model; format: in vivo, Sprague-Dawley rats
articular cartilage = assay: Safranin-O histology of tibiae, medial meniscal transection model; format: in vivo, Sprague-Dawley rats; details: 3 weeks following MMT injury
Description: Medial meniscal transection (MMT) injury was induced using a similar method to previously established protocols. Willett N. J. et al., Arthritis Res Ther. 2014; 16(1):R47. Male Sprague-Dawley rats (250-300 g initial weight and 8-10 weeks old) were used in accordance with protocols approved by the Georgia Institute of Technology Institutional Animal Care and Use Committee. Prior to surgery animals were anesthetized by 5% isoflurane (Isothesia), followed by 2-3% isoflurane during surgery and were administered sustained release buprenorphine as an analgesic. Next, a small incision was made through the skin on the medial aspect of the left femoral-tibial joint. The medial collateral ligament was exposed by blunt dissection and transected to visualize the joint space and medial meniscus. The meniscus was then transected completely at its narrowest point. The skin was sutured with 4.0 silk sutures (Ethicon) and then closed using wound clips.
For TSG-6 loaded MP treatment, MPs were loaded as described above but 3.6 mg MPs were resuspended in a total volume of 50 μL sterile 0.1 wt % BSA PBS solution and subsequently loaded into sterile syringes. 1, 7, and 15 days following MMT injury, MPs were delivered via intra-articular injection through the infrapatellar ligament and into the stifle joint of the left leg. For soluble TSG-6 controls, 16.7 μg TSG-6 was dissolved in a total volume of 50 μL sterile 0.1 wt % BSA PBS solution, loaded into sterile syringes, and delivered using the same method as TSG-6 loaded MPs. Overall, in vivo experimental groups included TSG-6 loaded MPs (18 μg TSG-6 loaded onto 10.8 mg MPs delivered over 3 time points; n=3), soluble TSG-6 (50 μg TSG-6 delivered over 3 time points; n=3) or injury only (no TSG-6 or MPs; n=4). Contralateral tibiae served as uninjured controls.
Following μCT, tibiae were decalcified in Cal-Ex II (Fisher) for 10 days, then processed for histology sectioning as described previously. Tellier L. E. et al. Localized SDF-1 Delivery Increases Pro-Healing Bone Marrow-Derived Cells in the Supraspinatus Muscle Following Severe Rotator Cuff Injury. […]

[3] = TSG-6 with soluble heparin derivative, or TSG-6 alone
[4] = 21 days following MMT injury, compared to uninjured control

Molecule | Loading efficiency of FTY720 ([1]; of the originally added amount of FTY720, 5, 10, 20 μg added) | Total amount of FTY720 released from MPs ([1]; over 7 days, dependent on amount originally added) [µg] | Plasmin activity compared to plasmin control (plasmin; [3]) [%] | Effect on TSG-6 anti-plasmin activity compared to TSG-6 alone (plasmin; soluble heparin derivatives, in words) | Cartilage fibrillation (contrast-enhanced μCT imaging) ([2]; 3 weeks following MMT injury) | Cartilage attenuation [2, 4] [×] | Cartilage thickness [2, 4] [×] | Cartilage volume [2, 4] [×] | Improvement of cartilage degeneration following injury (articular cartilage) | Proteoglycan loss (Safranin-O stained sections) (articular cartilage) | Safranin-O staining of GAG within cartilage (articular cartilage) | Plasmin activity compared to plasmin control (plasmin; day 1 release supernatant or soluble control, 11 ng/mL TSG-6) [%]
CCCCCCCCc1ccc(CCC(N)(CO)CO)cc1 [FTY720] | 35-80% | 0.5 to 5 |  |  |  |  |  |  |  |  |  | 
fully desulfated heparin [Hep−, reference compound] |  |  | 69.6±1.2 | no significant effect |  |  |  |  |  |  |  | 
soluble TSG-6: human TNF-α-stimulated gene-6, positively charged 35 kDa protein (R&D Systems) |  |  | 74.6±0.2 |  | cartilage fibrillation is present | 1.6±0.2 | 1.5±0.2 | 1.9±0.5 | unable to improve cartilage degeneration | proteoglycan loss is observed | Less intense safranin-O staining was observed | 96.4±3.1
